From ChEMBL document CHEMBL1147701, “Novel 4-anilinoquinazolines with C-6 carbon-linked side chains: synthesis and structure-activity relationship of a series of potent, orally active, EGF receptor tyrosine kinase inhibitors” (Bioorg Med Chem Lett, 2006)

Key:
[1] = target: Mitogen-activated protein kinase 1 (Homo sapiens, UniProt P28482); experiment: Inhibition of MAPK
[2] = target: Vascular endothelial growth factor receptor 2 (Homo sapiens, UniProt P35968)
[3] = target: Glycogen synthase kinase-3 beta (Homo sapiens, UniProt P49841); experiment: Inhibition of GSK3-beta
[4] = target: Proto-oncogene tyrosine-protein kinase Src (Homo sapiens, UniProt P12931); experiment: Inhibition of Src
[5] = target: cAMP-dependent protein kinase (PKA) (Homo sapiens, UniProt P22694+P17612+P22612); experiment: Inhibition of PKA; assay type: protein assay
[6] = target: Rho-associated protein kinase 2 (Homo sapiens, UniProt O75116); experiment: Inhibition of ROCK2
[7] = target: T1, Serine/threonine-protein kinase Sgk1 (Homo sapiens, UniProt O00141); experiment: Inhibition of SGK
T1 sequence (O00141 whole entry): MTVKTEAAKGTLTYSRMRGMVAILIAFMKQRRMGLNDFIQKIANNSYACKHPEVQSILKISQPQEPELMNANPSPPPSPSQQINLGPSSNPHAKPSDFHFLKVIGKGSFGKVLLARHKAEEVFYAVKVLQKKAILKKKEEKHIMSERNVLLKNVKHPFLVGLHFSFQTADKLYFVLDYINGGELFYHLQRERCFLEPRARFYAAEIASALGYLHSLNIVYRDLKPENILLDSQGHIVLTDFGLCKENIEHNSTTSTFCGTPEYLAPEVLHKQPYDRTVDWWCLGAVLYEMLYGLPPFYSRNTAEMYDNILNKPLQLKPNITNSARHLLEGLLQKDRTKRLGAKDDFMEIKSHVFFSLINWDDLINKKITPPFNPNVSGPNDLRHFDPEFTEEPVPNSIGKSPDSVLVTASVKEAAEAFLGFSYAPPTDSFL

[8] = target: c-Jun N-terminal kinase, JNK (Homo sapiens, UniProt P45983+P53779+P45984); experiment: Inhibition of JNK; assay type: protein assay
[9] = target: AMP-activated protein kinase, AMPK; experiment: Inhibition of AMPK; assay type: protein-complex assay
[10] = target: T2, Serine/threonine-protein kinase Chk1 (Homo sapiens, UniProt O14757); experiment: Inhibition of CHK1
T2 sequence (O14757 whole entry): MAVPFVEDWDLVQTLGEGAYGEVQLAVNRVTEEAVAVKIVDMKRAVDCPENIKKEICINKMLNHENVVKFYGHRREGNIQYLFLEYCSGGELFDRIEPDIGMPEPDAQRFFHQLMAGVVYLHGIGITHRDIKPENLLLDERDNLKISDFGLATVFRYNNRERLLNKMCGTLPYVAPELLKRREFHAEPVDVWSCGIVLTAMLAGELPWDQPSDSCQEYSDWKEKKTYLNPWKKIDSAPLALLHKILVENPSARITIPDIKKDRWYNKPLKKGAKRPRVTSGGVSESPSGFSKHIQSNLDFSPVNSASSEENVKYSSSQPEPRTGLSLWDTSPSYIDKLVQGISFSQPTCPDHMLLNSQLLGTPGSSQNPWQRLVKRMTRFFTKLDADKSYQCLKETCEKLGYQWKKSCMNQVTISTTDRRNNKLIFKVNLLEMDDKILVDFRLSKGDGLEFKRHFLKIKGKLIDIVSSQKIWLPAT

[11] = target: Tyrosine-protein kinase Lck (Homo sapiens, UniProt P06239)
MAP kinase p38 = MAP kinase p38 (Homo sapiens, UniProt O15264+Q15759+Q16539+P53778)
[12] = Inhibition of CDK

Measured: IC50

Tyrosine-protein kinase Lck, sequence (P06239 whole entry): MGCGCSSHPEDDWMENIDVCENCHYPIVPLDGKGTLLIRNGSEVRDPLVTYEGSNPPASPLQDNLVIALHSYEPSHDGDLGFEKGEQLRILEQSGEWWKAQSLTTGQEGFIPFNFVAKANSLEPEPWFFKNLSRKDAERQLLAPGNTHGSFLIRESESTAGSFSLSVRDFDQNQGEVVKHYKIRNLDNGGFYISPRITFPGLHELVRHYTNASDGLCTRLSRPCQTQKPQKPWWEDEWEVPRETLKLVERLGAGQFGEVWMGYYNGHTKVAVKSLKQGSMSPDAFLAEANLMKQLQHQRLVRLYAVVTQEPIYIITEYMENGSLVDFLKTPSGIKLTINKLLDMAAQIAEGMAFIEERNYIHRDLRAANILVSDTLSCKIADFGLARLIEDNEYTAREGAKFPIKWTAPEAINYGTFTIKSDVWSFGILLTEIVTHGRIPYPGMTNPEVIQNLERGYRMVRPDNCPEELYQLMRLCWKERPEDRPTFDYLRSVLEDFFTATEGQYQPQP
Proto-oncogene tyrosine-protein kinase Src, sequence (P12931 2-536 limits assumed): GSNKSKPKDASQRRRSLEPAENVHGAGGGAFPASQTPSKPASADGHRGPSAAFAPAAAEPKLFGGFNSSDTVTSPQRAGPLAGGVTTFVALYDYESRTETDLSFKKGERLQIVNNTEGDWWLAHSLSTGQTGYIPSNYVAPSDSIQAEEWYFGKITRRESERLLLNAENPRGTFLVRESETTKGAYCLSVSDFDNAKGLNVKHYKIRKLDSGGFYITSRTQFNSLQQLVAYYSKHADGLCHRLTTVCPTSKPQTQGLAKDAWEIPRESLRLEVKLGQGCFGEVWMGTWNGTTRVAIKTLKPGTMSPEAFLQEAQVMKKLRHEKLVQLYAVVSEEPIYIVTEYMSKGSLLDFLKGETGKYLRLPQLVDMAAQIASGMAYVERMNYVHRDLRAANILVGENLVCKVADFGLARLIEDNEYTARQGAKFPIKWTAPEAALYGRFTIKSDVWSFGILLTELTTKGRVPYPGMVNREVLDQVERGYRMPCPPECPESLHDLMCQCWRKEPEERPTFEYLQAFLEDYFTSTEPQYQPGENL
Glycogen synthase kinase-3 beta, sequence (P49841 whole entry): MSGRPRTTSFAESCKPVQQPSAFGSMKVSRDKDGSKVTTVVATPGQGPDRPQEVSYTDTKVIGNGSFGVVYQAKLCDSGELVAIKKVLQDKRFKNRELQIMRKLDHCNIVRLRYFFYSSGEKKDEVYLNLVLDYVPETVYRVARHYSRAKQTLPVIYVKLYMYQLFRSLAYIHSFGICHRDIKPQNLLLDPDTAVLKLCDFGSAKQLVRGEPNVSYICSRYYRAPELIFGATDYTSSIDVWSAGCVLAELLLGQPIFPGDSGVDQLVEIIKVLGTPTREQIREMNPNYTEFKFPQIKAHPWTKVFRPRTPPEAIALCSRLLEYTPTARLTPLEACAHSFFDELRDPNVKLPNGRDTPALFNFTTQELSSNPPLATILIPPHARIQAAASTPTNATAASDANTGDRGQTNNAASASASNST
Vascular endothelial growth factor receptor 2, sequence (P35968 whole entry): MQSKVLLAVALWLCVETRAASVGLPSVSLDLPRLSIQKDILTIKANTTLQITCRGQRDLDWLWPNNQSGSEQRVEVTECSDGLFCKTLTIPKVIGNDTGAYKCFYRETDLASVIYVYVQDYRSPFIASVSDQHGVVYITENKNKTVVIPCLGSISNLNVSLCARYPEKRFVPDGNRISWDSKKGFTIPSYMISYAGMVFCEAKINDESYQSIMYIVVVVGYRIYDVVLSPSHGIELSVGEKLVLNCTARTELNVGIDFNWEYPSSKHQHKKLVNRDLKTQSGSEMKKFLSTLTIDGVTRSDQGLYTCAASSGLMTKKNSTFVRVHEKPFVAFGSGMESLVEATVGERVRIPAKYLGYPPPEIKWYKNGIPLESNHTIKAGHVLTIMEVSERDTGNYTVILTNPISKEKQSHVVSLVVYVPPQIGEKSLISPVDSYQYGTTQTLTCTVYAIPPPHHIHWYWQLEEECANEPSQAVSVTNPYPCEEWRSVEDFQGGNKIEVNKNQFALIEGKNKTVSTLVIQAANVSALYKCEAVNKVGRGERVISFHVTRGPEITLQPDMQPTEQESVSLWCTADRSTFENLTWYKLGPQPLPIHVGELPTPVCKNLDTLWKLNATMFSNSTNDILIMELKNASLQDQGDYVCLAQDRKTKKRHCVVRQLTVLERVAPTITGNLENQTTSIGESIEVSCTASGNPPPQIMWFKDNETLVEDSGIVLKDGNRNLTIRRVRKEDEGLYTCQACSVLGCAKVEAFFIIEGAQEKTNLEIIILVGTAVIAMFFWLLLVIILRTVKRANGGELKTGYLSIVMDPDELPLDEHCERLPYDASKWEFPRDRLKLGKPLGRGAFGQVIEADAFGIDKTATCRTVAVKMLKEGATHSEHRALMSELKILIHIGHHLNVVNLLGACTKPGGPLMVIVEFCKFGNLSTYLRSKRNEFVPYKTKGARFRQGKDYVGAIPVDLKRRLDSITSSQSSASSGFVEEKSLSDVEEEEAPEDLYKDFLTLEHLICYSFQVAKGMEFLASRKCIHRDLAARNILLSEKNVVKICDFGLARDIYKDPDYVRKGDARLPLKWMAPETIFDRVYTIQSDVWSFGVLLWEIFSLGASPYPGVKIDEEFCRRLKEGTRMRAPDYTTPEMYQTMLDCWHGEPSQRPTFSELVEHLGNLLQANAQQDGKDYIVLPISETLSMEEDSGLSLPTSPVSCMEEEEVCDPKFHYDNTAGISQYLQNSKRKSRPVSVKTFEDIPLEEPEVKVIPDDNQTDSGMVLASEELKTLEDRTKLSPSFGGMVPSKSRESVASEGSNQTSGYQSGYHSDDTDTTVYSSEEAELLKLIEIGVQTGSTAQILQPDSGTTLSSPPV
Rho-associated protein kinase 2, sequence (O75116 whole entry): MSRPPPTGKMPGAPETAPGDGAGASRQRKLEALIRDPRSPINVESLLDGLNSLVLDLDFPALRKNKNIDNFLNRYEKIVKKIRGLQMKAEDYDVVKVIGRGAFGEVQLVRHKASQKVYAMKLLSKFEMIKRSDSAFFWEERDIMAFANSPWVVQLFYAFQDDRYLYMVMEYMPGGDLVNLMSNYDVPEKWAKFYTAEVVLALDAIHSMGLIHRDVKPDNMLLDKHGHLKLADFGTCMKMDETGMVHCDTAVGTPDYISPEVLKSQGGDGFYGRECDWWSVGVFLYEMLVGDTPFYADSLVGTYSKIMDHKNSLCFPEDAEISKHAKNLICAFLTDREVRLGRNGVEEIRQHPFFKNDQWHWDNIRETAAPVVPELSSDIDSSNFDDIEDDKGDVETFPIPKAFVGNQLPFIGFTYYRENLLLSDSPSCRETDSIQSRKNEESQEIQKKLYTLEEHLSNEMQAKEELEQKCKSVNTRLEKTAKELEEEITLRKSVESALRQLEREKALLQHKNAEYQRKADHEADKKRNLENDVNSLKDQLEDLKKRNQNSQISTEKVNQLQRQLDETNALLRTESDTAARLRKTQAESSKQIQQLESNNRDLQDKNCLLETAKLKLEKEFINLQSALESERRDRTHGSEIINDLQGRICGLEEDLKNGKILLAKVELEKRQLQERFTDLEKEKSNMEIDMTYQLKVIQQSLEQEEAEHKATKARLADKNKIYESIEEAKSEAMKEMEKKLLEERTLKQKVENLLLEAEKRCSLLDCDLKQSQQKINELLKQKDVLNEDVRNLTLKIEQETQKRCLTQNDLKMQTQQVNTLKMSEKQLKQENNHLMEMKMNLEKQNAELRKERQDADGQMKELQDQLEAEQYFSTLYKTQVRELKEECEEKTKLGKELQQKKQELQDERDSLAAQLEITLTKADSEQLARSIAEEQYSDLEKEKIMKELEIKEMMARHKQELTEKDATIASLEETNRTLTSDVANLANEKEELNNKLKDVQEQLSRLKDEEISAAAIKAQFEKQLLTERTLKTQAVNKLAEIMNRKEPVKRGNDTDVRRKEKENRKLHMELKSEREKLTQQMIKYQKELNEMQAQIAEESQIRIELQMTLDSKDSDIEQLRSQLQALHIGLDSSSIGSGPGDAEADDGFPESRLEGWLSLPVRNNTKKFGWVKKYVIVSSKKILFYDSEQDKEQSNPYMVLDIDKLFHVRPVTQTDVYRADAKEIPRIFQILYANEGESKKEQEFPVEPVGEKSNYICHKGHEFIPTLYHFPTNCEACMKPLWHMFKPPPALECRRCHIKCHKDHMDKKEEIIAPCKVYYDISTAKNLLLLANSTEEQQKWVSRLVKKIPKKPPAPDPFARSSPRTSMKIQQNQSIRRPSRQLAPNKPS
Mitogen-activated protein kinase 1, sequence (P28482 whole entry): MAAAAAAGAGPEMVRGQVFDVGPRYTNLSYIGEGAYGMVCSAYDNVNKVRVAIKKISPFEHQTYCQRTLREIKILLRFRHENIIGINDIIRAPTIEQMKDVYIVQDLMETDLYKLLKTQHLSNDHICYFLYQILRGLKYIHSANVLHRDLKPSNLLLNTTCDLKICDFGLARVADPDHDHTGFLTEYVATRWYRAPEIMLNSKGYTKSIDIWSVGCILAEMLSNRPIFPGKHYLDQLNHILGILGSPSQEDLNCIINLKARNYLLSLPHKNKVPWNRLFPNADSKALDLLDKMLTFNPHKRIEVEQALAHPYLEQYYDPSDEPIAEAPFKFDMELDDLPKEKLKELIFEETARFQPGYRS

COc1cc2ncnc(Nc3cccc(Cl)c3F)c2cc1CN1CCOCC1C(N)=O (stereo unspecified)
not listed: MAP kinase p38 | [12]
> 10 µM: all other assays above

COC[C@@H](C(N)=O)N(C)Cc1cc2c(Nc3cccc(Cl)c3F)ncnc2cc1OC
not listed: [11] | [12]
> 10 µM: all other assays above

COc1cc2ncnc(Nc3cccc(Cl)c3F)c2cc1CN1C[C@H](OC)C[C@@H]1C(N)=O
not listed: [5] | [11] | MAP kinase p38 | [12]
> 10 µM: all other assays above

COc1cc2ncnc(Nc3cccc(Cl)c3F)c2cc1CN1CCCC1
not listed: MAP kinase p38 | [12]
> 10 µM: all other assays above

COc1cc2ncnc(Nc3cccc(Cl)c3F)c2cc1CN1CC[C@H](C(N)=O)C1
not listed: [5] | MAP kinase p38 | [12]
> 10 µM: all other assays above

CNC(=O)[C@H]1CCCN1Cc1cc2c(Nc3cccc(Cl)c3F)ncnc2cc1OC
not listed: [11] | [12]
> 10 µM: all other assays above

COc1cc2ncnc(Nc3cccc(Cl)c3F)c2cc1CN(CCN(C)C)[C@@H](C)C(N)=O
not listed: MAP kinase p38 | [12]
> 10 µM: all other assays above

COc1cc2ncnc(Nc3cccc(Cl)c3F)c2cc1CN(C)[C@@H](CO)C(N)=O
not listed: [11] | [12]
> 10 µM: all other assays above

COc1cc2ncnc(Nc3cccc(Cl)c3F)c2cc1CN1CCC1C(N)=O (stereo unspecified)
not listed: [11] | [12]
> 10 µM: all other assays above

COc1cc2ncnc(Nc3cccc(Cl)c3F)c2cc1CN1CC(C(N)=O)C1
not listed: [11] | MAP kinase p38 | [12]
> 10 µM: all other assays above

COc1cc2ncnc(Nc3cccc(Cl)c3F)c2cc1CN(C)[C@H](C)C(=O)N(C)C
not listed: [11] | MAP kinase p38 | [12]
> 10 µM: all other assays above

COCCN(Cc1cc2c(Nc3cccc(Cl)c3F)ncnc2cc1OC)[C@@H](C)C(N)=O
not listed: MAP kinase p38 | [12]
> 10 µM: all other assays above

COc1cc2ncnc(Nc3cccc(Cl)c3F)c2cc1CN1CCC[C@@H]1C(N)=O
not listed: MAP kinase p38
> 10 µM: all other assays above

COc1cc2ncnc(Nc3cccc(Cl)c3F)c2cc1CN1CCC[C@@H]1C(=O)N(C)C
not listed: [11] | MAP kinase p38 | [12]
> 10 µM: all other assays above

COc1cc2ncnc(Nc3cccc(Cl)c3F)c2cc1CN(C)C1CCNC1=O (stereo unspecified)
not listed: [11] | [12]
> 10 µM: all other assays above

COc1cc2ncnc(Nc3cccc(Cl)c3F)c2cc1CN1CCN(C)CC1C(N)=O (stereo unspecified)
not listed: [11] | [12]
> 10 µM: all other assays above
